Like-named read-outs stand apart in the source and are kept apart here.
Molecular target: T1, glucocorticoid receptor (GR) (Homo sapiens, UniProt P04150)
T1 construct: gene NR3C1
T1 sequence (P04150 1-777): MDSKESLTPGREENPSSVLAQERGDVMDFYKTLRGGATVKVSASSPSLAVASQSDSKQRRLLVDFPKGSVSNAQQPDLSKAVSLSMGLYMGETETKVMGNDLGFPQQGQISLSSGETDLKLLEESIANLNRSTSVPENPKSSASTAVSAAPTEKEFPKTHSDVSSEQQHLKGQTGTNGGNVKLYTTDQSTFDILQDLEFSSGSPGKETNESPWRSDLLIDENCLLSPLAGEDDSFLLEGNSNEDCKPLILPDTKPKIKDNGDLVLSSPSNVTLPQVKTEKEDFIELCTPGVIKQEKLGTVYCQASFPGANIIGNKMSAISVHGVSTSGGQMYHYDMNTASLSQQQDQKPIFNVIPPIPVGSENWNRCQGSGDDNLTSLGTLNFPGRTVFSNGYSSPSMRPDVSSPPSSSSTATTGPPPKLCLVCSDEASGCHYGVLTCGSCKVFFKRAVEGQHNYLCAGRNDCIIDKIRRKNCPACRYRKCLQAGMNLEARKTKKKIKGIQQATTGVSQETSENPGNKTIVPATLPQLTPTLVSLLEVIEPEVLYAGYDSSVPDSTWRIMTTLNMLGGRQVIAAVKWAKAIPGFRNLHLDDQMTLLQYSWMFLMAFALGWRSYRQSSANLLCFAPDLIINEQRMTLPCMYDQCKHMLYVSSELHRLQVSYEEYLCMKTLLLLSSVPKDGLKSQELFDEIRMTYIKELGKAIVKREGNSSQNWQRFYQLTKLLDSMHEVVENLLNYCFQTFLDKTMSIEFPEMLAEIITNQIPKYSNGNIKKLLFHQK
Assay: [3H]Dex competition radioligand binding in whole K562 cells (endogenous GR)
Assay type: cell-based

Row | SMILES | IC50 | IC50 (read-out: IC50)
1 | CNCC(Cl)c1ccc(OC(C)=O)cc1 (centres unmarked) [CpdA, 2-(4-acetoxyphenyl)-2-chloro-N-methylethylammonium-chloride] | 2.5 µM | 
2 | Oc1ccc(C(O)CN2CCCCC2)cc1 (centres unmarked) [CpdA-03, 4-(1-hydroxy-2-(piperidin-1-yl)ethyl)phenol] |  | 0.15 µM

From article PMC11354514, “Synthesis and Anti-Cancer Activity of the Novel Selective Glucocorticoid Receptor Agonists of the Phenylethanolamine Series” (International Journal of Molecular Sciences, 2024)
